Measured values taken from patent publication US6685935B1 (priority 1995, dated 2004).
Read-outs that look alike come from different tables or passages of the source.

Legend:
C57B6 mice = settings: mouse, in vivo, ip
[1] = tested on: B16F10 melanoma in C57B6 mice; assay type: in vivo, mouse
Procedure: C57B6 mice were inoculated s.c., left shoulder region, with […] B16F10 melanoma cells from culture. […] At 18 days post-tumor implantation (10 days post bacterial inoculation) all animals were given enrofloxacin antibiotic, 0.2 mg/ml, in their drinking water (BAYTRIL™) and maintained with this antibiotic supplement for 2 weeks. Tumor growth was assessed by caliper measurements and computed as volume in mm^3. Animals were euthanized and listed as dead when the sum of their tumor measurements, length+width+height, reached 60 mm, or when they became moribund (listless, cessation of drinking).
C57B6 female mice, 5-7 weeks old, were inoculated s.c. in the left shoulder region with 5×10^5 B16F10 melanoma cells grown in culture. […] Tumor growth was assessed with periodic caliper measurements of tumor length, width and height, and computed as tumor volume in mm^3. Results of tumor growth, shown in FIGS. 16A-D represent the averages±SD for 5 animals/group with 5/5 animals surviving. After the point at which one or more animals died within a group, the average tumor sizes of the surviving animals were no longer shown when the data were plotted as shown in FIGS. 16A-D.
The animals were allowed to eat and drink ad libitum. Twenty-three days (Experiment #1) or 10 days (Experiment #2) following inoculation of bacteria, both control and bacteria treated mice were given Baytril™ (enrofloxacin, 0.2 mg/ml drinking water) and maintained on this antibiotic for a total of 2 weeks. In Experiment #1 the times at which the mice became moribund (listless, cessation of drinking) or died, were noted. The results are presented in Table 20(F) as the average survival±SD for the conditions tested. In Experiment #2 animals were sacrificed when the tumor reached 4 g and listed with the other dead as described in Experiment #1. The two different methods for assessing survival accounted for a somewhat shorter survival time for control animals in Experiment #2 (26 days) as compared to Experiment #1 (28 days).

B16F10 melanoma cells = assay type: cell-based, mouse
Procedure: FIG. 11-F is a graph showing the growth of B16F10 melanoma cells in monolayer culture in the presence or absence of ganciclovir at 10 μg/ml or 25 μg/ml.

[2] = tested on: Cloudman S91 melanoma/macrophage hybrid #48 tumors in DBA/2J mice

Row | SMILES | Avg. time of Death ± S.D. (C57B6 mice) [days] | Time Days ± S.D. ([1]; GCV 3.75 mg, no bacteria) [days] | Treated/Control T/C ([1]; GCV 3.75 mg, no bacteria) | effect on tumor volume ([1]; GCV 3.75 mg-10 mg/mouse days 11-12, no bacteria) | proliferation of B16F10 melanoma cells in culture (B16F10 melanoma cells; GCV 10 μg/ml) | proliferation of B16F10 melanoma cells in culture (B16F10 melanoma cells; GCV 25 μg/ml) | side-effects of ganciclovir treatment ([2]; 2.5 mg i.p. four times over 3 days, no bacteria) | Mean Tumor Doubling Time ([2]; 3×10^5 c.f.u. bacteria i.p., ganciclovir 2.0 mg, 6 inoculations over 5 days) [h]
1 | CCN1CCN(c2cc3c(cc2F)c(=O)c(C(=O)O)cn3C2CC2)CC1 [enrofloxacin, 1-cyclopropyl-7-(4-ethyl-1-piperazinyl)-6-fluoro-1,4-dihydro-4-oxo-3-quinolinecarboxylic acid] | >21 |  |  |  |  |  |  | 
2 | Nc1nc(O)c2ncn(COC(CO)CO)c2n1 [ganciclovir, ganciclovir sodium] |  | 27 ± 1 | 1.1 | small reduction in tumor volume | not | significantly suppressed | little or no side-effects | 94
